This experiment deals with CEM cells HIV-1 protection, formazan growth assay. The experiment can be described thus: NCI AIDS Antiviral Assay. As to conditions: for IC50: measured here: growth of uninfected CEM cells. The essentials: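 CEM (human) cells, HIV-1 infected vs uninfected, 5-point dosing, formazan growth read-out. Retest threshold 50% protection.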

Activity calls are given as the source filed them.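 How the source made its calls: active means compounds giving half or more protection of infected cells from virus-caused growth loss, again on retest; inactive means the rest.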

A word on the EC50: it is the concentration that produces a half-maximal response. For orientation: IC50 means the concentration that inhibits the measured activity by half.

Consider `C/C=C\C(=O)C#Cc1cnc(OC)nc1OC`, for which the EC50 is greater than 2 µM and the IC50 was 0.0912 µM.

Regarding `C=CC1(C)CCC2C(C)(C)C(Br)CC[C@]2(C)O1` (some centres not stated), the outcome was inactive.

For the compound `O=c1ccn(C2CCC3(CO)CC23)c(=O)[nH]1` (configuration not stated), the EC50 was greater than 50.1 µM and the concentration for half-maximal inhibition (IC50) was greater than 50.1 µM.

Take `COc1cc(CNCc2cc(OC)c(OC)c(OC)c2)cc(OC)c1OC`: the EC50 is greater than 200 µM and the 50% inhibitory concentration (IC50) was greater than 200 µM.

Turning to `CSc1nc(SC)c2[nH]cnc2n1`, the EC50 is greater than 200 µM and the IC50 was 145 µM.

With `COc1ccc(N=N/C(=N\NC(=O)c2cc(Br)ccc2O)c2ccc(N(CCC#N)CCC#N)cc2OC)cc1`, the EC50 was greater than 100 µM and the IC50 turned out to be 18.2 µM.

In the case of `CC(=Nc1cccc(Cl)c1)c1ccncc1`, the outcome was inactive.

In the case of `COc1ccc2cc1Oc1ccc(cc1)CC1c3cc(c(OC)cc3CCN1C)Oc1c(OC)c(OC)c(OC)c3c1[C@H](C2)N(C)CC3` (some centres not stated), the result was inactive.

On to `CC[N+]1(C2=C([O-])C(F)(F)C2=O)CCCCC1`, for which the EC50 was greater than 200 µM and the 50% inhibitory concentration (IC50) was greater than 200 µM.

As to `CN(C)C(=O)NCCN1CCCCCc2ccccc21`, the EC50 was greater than 200 µM and the concentration for half-maximal inhibition (IC50) turned out to be 49 µM.

Consider `C=C1[C@H](OC(=O)C(C)C)[C@]23CC4(O)[C@@H]5[C@@]6(C)CCC[C@]57C([C@@H]2C[C@@]1(O)[C@H](O)[C@@H]73)N4C6`, for which the EC50 was 61.7 µM and the IC50 is greater than 200 µM.

`CCOC(=O)C1(C#N)C2(C#N)C(N)=NC(ON=C(C)C)(ON=C(C)C)C12C#N` (configuration not stated): the EC50 was greater than 200 µM and the IC50 is greater than 200 µM.

Regarding `Cc1cc(O)c2c(c1)C(=O)c1cccc(O)c1C2=O`, the EC50 is greater than 28.2 µM and the IC50 is greater than 28.2 µM.

In the case of `CN(C)CC1CCCC/C1=N/O` (configuration not stated), the outcome was inactive.

Take `COc1ccc(/C=C2\CCC/C(=C\c3ccc(O)c(CN4CCCCC4)c3)C2=O)cc1`: the EC50 is greater than 200 µM and the IC50 was 3.16 µM.

On to `Cc1ccc(C(=O)NCCCl)cc1C`, for which the result was inactive.

As to `CC(C)C1SCc2nc3ccccc3n21` (configuration not stated), the EC50 is greater than 200 µM and the IC50 amounted to 95.5 µM.

Take `C[N+](C)(C)C(CSSCC(C(=O)[O-])[N+](C)(C)C)C(=O)[O-]` (configuration not stated): the EC50 was greater than 200 µM and the half-inhibitory concentration (IC50) is greater than 200 µM.

With `Cc1cc(=O)n(-c2cc3cccccc-3n2)[nH]1`, the result was inactive.

Turning to `COC(=O)NC(C(F)(F)F)(C(F)(F)F)P1(=O)OCCCO1`, the EC50 was greater than 200 µM and the IC50 came out at 63.1 µM.

Consider `CCCCCCOC(=O)c1[nH]c(=O)n(CCCCCC)c(=O)c1N`, for which the EC50 is greater than 200 µM and the IC50 came to 151 µM.

As to `CCCNC(=S)/N=C/c1c(O)c2ccccc2[nH]c1=O`, the EC50 is greater than 200 µM and the half-inhibitory concentration (IC50) was greater than 200 µM.

In the case of `O=C(c1ccccc1)C1N(c2ccccc2)CCN1c1ccccc1`, the EC50 was greater than 200 µM and the IC50 came out at 21.9 µM.

On to `O=[N+]([O-])c1cccc(C2=NOC3C4CCC(C4)C23)c1` (configuration not stated), for which the EC50 was 0.135 µM and the IC50 is 66.1 µM.

Regarding `COC(=O)C1(Cc2ccccc2)Cc2ccc3c(c2C1=O)CCC3` (configuration not stated), the EC50 is greater than 200 µM and the IC50 was greater than 200 µM.

With `O=C1C2(CCCC13OC3c1ccccc1)OC2c1ccccc1` (configuration not stated), the EC50 was greater than 200 µM and the IC50 amounted to 115 µM.

For `CC(=O)NNC(=S)N/C=C(\C#N)c1nc2ccccc2s1`, the EC50 was greater than 200 µM and the IC50 is greater than 200 µM.

As to `c1ccc(-c2cnc3cccnc3n2)cc1`, the EC50 is greater than 200 µM and the IC50 was 174 µM.

Take `COC(=O)C1=C2c3ccccc3NC(=O)N2NC1C(=O)OC` (configuration not stated): the EC50 was greater than 550 µM and the IC50 was 501 µM.

For the compound `CCOC(=O)C1C(=O)CC(C)(O)C(C(=O)OCC)C1c1ccc(O)c(OC)c1` (configuration not stated), the EC50 is greater than 200 µM and the IC50 was greater than 200 µM.

Regarding `Cc1ccc(S(=O)(=O)NC(CSSCC(NS(=O)(=O)c2ccc(C)cc2)C(=O)OC(C)(C)C)C(=O)OC(C)(C)C)cc1` (configuration not stated), the EC50 was greater than 200 µM and the 50% inhibitory concentration (IC50) is greater than 200 µM.

Regarding `O=C1C(=O)N(C(=O)c2ccc(Cl)c(Cl)c2)c2ccc(Cl)cc21`, the outcome was inactive.

For `CC(C)C(CCOS(=O)(=O)O)CCC(C)[C@H]1[C@@H](O)C(O)C2[C@]3(O)C[C@@H](O)C4(O)C[C@@H](O)CC[C@]4(C)C3CC[C@@]21C` (some centres not stated), the outcome was inactive.

For `Cc1cc2c(=O)cc(-c3ccncc3)oc2c(C(N)=O)c1C`, the EC50 is greater than 151 µM and the IC50 was found to be 70.8 µM.

As for `Nc1nc2c(ncn2CC2COC(CO)O2)c(=O)[nH]1` (configuration not stated), the EC50 was greater than 468 µM and the IC50 was greater than 468 µM.

`N#C/C(=C\c1cccc2ccccc12)c1ccc(Cl)cc1`: the EC50 is greater than 200 µM and the IC50 was found to be 95.5 µM.

For `CCCCCCCCCCCC(=O)OCC1OC(n2cc(F)c(=O)[nH]c2=O)C(NC(=O)OCc2ccccc2)C(OC(=O)CCCCCCCCCCC)C1O` (configuration not stated), the EC50 was greater than 6.61 µM and the half-inhibitory concentration (IC50) was greater than 6.61 µM.

As for `O=C1C(=O)c2ccccc2C(O)=C1C(C1=C(O)c2ccccc2C(=O)C1=O)c1ccc(Cl)c(Cl)c1`, the EC50 is greater than 200 µM and the concentration for half-maximal inhibition (IC50) was 18.6 µM.

Take `Cc1[nH]c2ncnc(N)c2c1Cc1ccccc1`: the EC50 is greater than 200 µM and the IC50 stood at 2.63 µM.

Consider `O=C(CCn1[nH]c(=O)c(Cl)c(Cl)c1=O)NO`, for which the EC50 is greater than 933 µM and the IC50 worked out at 832 µM.

As to `COc1ccc2c(c1)C(=O)C13CC(C(=O)OCc4ccccc4)C(OC(C)=O)(CCC21)C3` (configuration not stated), the EC50 was greater than 72.4 µM and the IC50 was greater than 72.4 µM.

Regarding `O=Nc1ccccc1C(=O)O`, the EC50 was greater than 151 µM and the IC50 was 47.9 µM.

On to `CC(=O)CC(c1ccccc1)c1c(O)c2ccccc2oc1=O` (configuration not stated), for which the EC50 is greater than 813 µM and the IC50 is 372 µM.

For the compound `COC(=O)C1CC(C(=O)OC)c2nc3cc(C)ccc3nc21` (configuration not stated), the EC50 was greater than 437 µM and the half-inhibitory concentration (IC50) is greater than 437 µM.

In the case of `OC1CCN(Cc2ccccc2)C[C@@H]1CNC12CC3CC(CC(C3)C1)C2` (some centres not stated), the EC50 is greater than 100 µM and the IC50 stood at 93.3 µM.

Consider `N#C/C(=C\c1ccccc1)c1ccc(F)cc1F`, for which the EC50 was greater than 200 µM and the IC50 was found to be 37.2 µM.

Take `Cc1cc(N(CCC#N)CCC#N)ccc1N=Nc1cccc(Cl)c1`: the EC50 is greater than 7.76 µM and the IC50 is greater than 7.76 µM.

Turning to `Cc1cc2c(c(C(N)=O)c1C)-c1cc(Cl)cc(Cl)c1C2=O`, the EC50 is greater than 22.4 µM and the IC50 is greater than 22.4 µM.

With `O=C(Nc1ccccc1)c1c(O)[nH]c(=O)[nH]c1=O`, the EC50 was greater than 75.9 µM and the IC50 was determined as 38.9 µM.

In the case of `Cc1cccc(C(C)(C)C)c1NC(=O)/C(Cc1nc2ccc([N+](=O)[O-])cc2[nH]c1=O)=N/NC(=O)C[N+](C)(C)C`, the EC50 is greater than 437 µM and the IC50 was found to be 60.3 µM.

Take `c1ccc(-c2cc(-c3cc(-c4ccccc4)n(-c4ccccc4)n3)nn2-c2ccccc2)cc1`: the EC50 is greater than 100 µM and the IC50 was greater than 100 µM.

For the compound `O=C1C=CC(=O)N1n1c(Cc2ccccc2)n[nH]c1=O`, the EC50 is greater than 200 µM and the IC50 was greater than 200 µM.

Take `COc1ccc(NC(=O)c2c(NC(=O)CN3CCOCC3)c(C#N)c3n2CCC3)cc1`: the EC50 is greater than 100 µM and the IC50 was greater than 100 µM.

Take `CCOC(=O)CN1CCC(C2(c3cc4ccccc4[nH]3)OCCO2)CC1`: the EC50 is greater than 363 µM and the concentration for half-maximal inhibition (IC50) was greater than 363 µM.

Consider `O=C(Nc1ccccc1)N1CCN(C(=O)Nc2ccccc2)C1=S`, for which the EC50 was 195 µM and the half-maximal inhibitory concentration (IC50) is greater than 200 µM.

As to `O=c1c2ccccc2[se]n1-c1ccc(I)cc1`, the EC50 is greater than 11 µM and the IC50 turned out to be 10.7 µM.

`CC(=O)C(=[N+]=[N-])C(=O)NCC#N`: the EC50 was greater than 200 µM and the half-inhibitory concentration (IC50) was greater than 200 µM.

In the case of `C[N+]12C(=O)CC3OCC=C4C[N+]5(C)CCC6(c7ccccc71)C2C3C4CC65O` (configuration not stated), the EC50 was greater than 398 µM and the IC50 came to 224 µM.

As for `CC1(Cl)C(=O)NN=C1c1ccc([N+](=O)[O-])cc1` (configuration not stated), the EC50 was greater than 200 µM and the 50% inhibitory concentration (IC50) worked out at 17.8 µM.

For the compound `C#CCNC(CS)C(=O)O` (configuration not stated), the EC50 is greater than 200 µM and the IC50 is greater than 200 µM.

Consider `CC(CN1CCN(CC(C)Nc2ccnc3cc(Cl)ccc23)CC1)Nc1ccnc2cc(Cl)ccc12` (configuration not stated), for which the EC50 is greater than 50.1 µM and the IC50 is greater than 50.1 µM.

On to `Cc1cccc(N=N/C(=N\NC(=O)c2cc(Cl)ccc2O)c2ccc(N(CCC#N)CCC#N)cc2C)c1`, for which the EC50 is greater than 200 µM and the half-maximal inhibitory concentration (IC50) stood at 30.9 µM.

As to `O=c1[nH]c2ccc(CC(=S)N3CCOCC3)cc2o1`, the EC50 is greater than 200 µM and the concentration for half-maximal inhibition (IC50) is greater than 200 µM.

For `CCC[CH2][Sn]([CH2]CCC)([O]C(=O)Cc1ccc(F)cc1)[O]C(=O)Cc1ccc(F)cc1`, the EC50 was greater than 25.1 µM and the half-inhibitory concentration (IC50) came to 4.79 µM.

On to `CCNC(=S)N/N=C(/C)c1cccc(/C(C)=N\NC(=S)NCC)n1`, for which the EC50 was greater than 200 µM and the IC50 turned out to be 2.19 µM.

With `Cc1ccc(-c2cc(O)c3nc4ccccc4n3c2)cc1`, the EC50 is greater than 200 µM and the IC50 was greater than 200 µM.

Consider `O=C(Nc1ccc(Cl)cc1)/C(Cc1cccc[n+]1[O-])=N\Nc1ccc([N+](=O)[O-])cc1[N+](=O)[O-]`, for which the EC50 was greater than 107 µM and the IC50 was greater than 107 µM.

For the compound `O=S(=O)(O)c1ccc(-c2nnc(-c3ccccn3)nc2-c2ccc(S(=O)(=O)O)o2)o1`, the EC50 was greater than 200 µM and the IC50 was greater than 200 µM.

As for `C/C(O)=C(/C=N/C(=S)Nc1ccccc1)C(=O)Nc1ccccc1C`, the EC50 was greater than 200 µM and the concentration for half-maximal inhibition (IC50) was 195 µM.

On to `CCOC(=O)C(=CNC(=S)Nc1c(CC)cccc1CC)C(=O)OCC`, for which the EC50 was greater than 200 µM and the IC50 is greater than 200 µM.

As for `CC(C)[C@@H]1ON1C(C)c1ccccc1` (some centres not stated), the EC50 was greater than 200 µM and the half-maximal inhibitory concentration (IC50) is greater than 200 µM.

On to `C=C1c2nc3ccccc3n2C=C(c2ccc(C)cc2)N1c1ccc(OC)cc1`, for which the EC50 was greater than 200 µM and the concentration for half-maximal inhibition (IC50) is 11.5 µM.

As to `CC(=O)[O-].CC(=O)[O-].O=C(N/N=C/c1cc(Cl)cc(Cl)c1[OH2+])c1ccncc1.[Mn+2]`, the result was inactive.
